PubChem BioAssay (NCI)
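The concentration for 50% growth inhibition is given as GI50. The concentration for full growth arrest is given as TGI.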

What was measured:
Test in all cases: DTP human tumour cell line panel, 384-well format
[1] = system: OVCAR-5 ovarian
[2] = system: HCC-2998 colon
[3] = system: KM12 colon
[4] = system: SNB-75 CNS
[5] = system: NCI/ADR-RES ovarian
[6] = system: OVCAR-8 ovarian
[7] = system: NCI-H522 lung
[8] = system: SF-268 CNS
[9] = system: MOLT-4 leukemia
[10] = system: A498 renal
[11] = system: HOP-62 NSCLC
[12] = system: UACC-62 melanoma
[13] = system: SN12C renal
[14] = system: RPMI-8226 leukemia
[15] = system: LOX IMVI melanoma
[16] = system: HS 578T breast
[17] = system: HOP-92 NSCLC
[18] = system: U251 glioblastoma
[19] = system: CAKI-1 renal
[20] = system: ACHN renal
[21] = system: T-47D breast
[22] = system: MCF7 breast
[23] = system: K-562 leukemia
[24] = system: NCI-H322M lung
[25] = system: IGROV1 ovarian
[26] = system: SK-MEL-28 melanoma
[27] = system: RXF 393 renal
[28] = system: MALME-3M melanoma
[29] = system: COLO 205 colon
[30] = system: CCRF-CEM leukemia
[31] = system: MDA-MB-231 breast
[32] = system: OVCAR-3 ovarian
[33] = system: NCI-H23 lung
[34] = system: M14 melanoma
[35] = system: TK-10 renal
[36] = system: A549 NSCLC
[37] = system: SW-620 colon
[38] = system: MDA-MB-468 breast
[39] = system: SF-539 CNS
[40] = system: HCT-15 colon
[41] = system: EKVX NSCLC
[42] = system: HT29 colon
[43] = system: DU-145 prostate
[44] = system: HL-60(TB) leukemia
[45] = system: MDA-MB-435 melanoma
[46] = system: BT-549 breast
[47] = system: SF-295 CNS
[48] = system: UACC-257 melanoma
[49] = system: NCI-H226 lung
[50] = system: NCI-H460 NSCLC
[51] = system: UO-31 renal
[52] = system: 786-0 renal
[53] = system: SNB-19 CNS
[54] = system: SR leukemia
[55] = system: SK-OV-3 ovarian
[56] = system: OVCAR-4 ovarian
[57] = system: PC-3 prostate
[58] = system: SK-MEL-5 melanoma

Work on `O=C(Nc1ccc(OC(F)(F)F)cc1)c1sccc1NCc1ccnc2ccccc12` yielded a GI50 [1] of 8.44 µM, a TGI [1] of 43.8 µM and a GI50 [2] of 4.65 µM. For the same molecule, the TGI [2] was 12 µM, the GI50 [3] was 3.74 µM and the TGI [3] was 15.9 µM. The GI50 [4] was 5.09 µM, the TGI [4] was 51.6 µM and the GI50 [5] was 2.8 µM. The TGI [5] was 8.9 µM, the GI50 [6] was 3.99 µM and the TGI [6] was 16.2 µM. It also gave a GI50 [7] of 2.96 µM, a TGI [7] of 11.6 µM and a GI50 [8] of 6.24 µM. The TGI [8] was 32 µM, the GI50 [9] was 1.93 µM and the TGI [9] was 3.56 µM. For the same molecule, the GI50 [10] was 2.57 µM, the TGI [10] was 12.8 µM and the GI50 [11] was 8.26 µM. For the same molecule, the TGI [11] was 71.6 µM, the GI50 [12] was 2.76 µM and the TGI [12] was 14.3 µM. The GI50 [13] was 3.82 µM, the TGI [13] was 24.8 µM and the GI50 [14] was 2.06 µM. For the same molecule, the TGI [14] was 4.59 µM, the GI50 [15] was 3.48 µM and the TGI [15] was 10.6 µM. The GI50 [16] was 2.66 µM, the TGI [16] was 8.81 µM and the GI50 [17] was 3.99 µM. The TGI [17] was 15.7 µM, the GI50 [18] was 11.8 µM and the TGI [18] was greater than 100 µM. It also gave a GI50 [19] of 3.2 µM, a TGI [19] of 14.8 µM and a GI50 [20] of 3.39 µM. For the same molecule, the TGI [20] was 20.7 µM, the GI50 [21] was 2.03 µM and the TGI [21] was 6.57 µM. The GI50 [22] was 3.24 µM, the TGI [22] was 15.9 µM and the GI50 [23] was 1.75 µM. The TGI [23] was 3.66 µM, the GI50 [24] was 4.43 µM and the TGI [24] was 40.4 µM. It also gave a GI50 [25] of 2.47 µM, a TGI [25] of 6.72 µM and a GI50 [26] of 5.71 µM. It also gave a TGI [26] of 35.2 µM, a GI50 [27] of 2.97 µM and a TGI [27] of 14.3 µM. It also gave a GI50 [28] of 1.73 µM, a TGI [28] of 8.96 µM and a GI50 [29] of 4.4 µM. The TGI [29] was 22.8 µM, the GI50 [30] was 2.03 µM and the TGI [30] was 4.44 µM. For the same molecule, the GI50 [31] was 1.9 µM, the TGI [31] was 15.2 µM and the GI50 [32] was 5.25 µM. It also gave a TGI [32] of 19.6 µM, a GI50 [33] of 2.39 µM and a TGI [33] of 8.57 µM. It also gave a GI50 [34] of 3.56 µM, a TGI [34] of 14.3 µM and a GI50 [35] of 11 µM. The TGI [35] was 65 µM, the GI50 [36] was 4.5 µM and the TGI [36] was 52.5 µM. The GI50 [37] was 6.31 µM, the TGI [37] was 23 µM and the GI50 [38] was 2.06 µM. For the same molecule, the TGI [38] was 5.16 µM, the GI50 [39] was 5.11 µM and the TGI [39] was 19.8 µM. It also gave a GI50 [40] of 3.55 µM, a TGI [40] of 10.9 µM and a GI50 [41] of 3.43 µM. For the same molecule, the TGI [41] was 19.9 µM, the GI50 [42] was 4.31 µM and the TGI [42] was 17.1 µM. For the same molecule, the GI50 [43] was 4.94 µM, the TGI [43] was greater than 100 µM and the GI50 [44] was 1.69 µM. It also gave a TGI [44] of 3.17 µM, a GI50 [45] of 4.65 µM and a TGI [45] of 21.7 µM. The GI50 [46] was 5.78 µM, the TGI [46] was 17.7 µM and the GI50 [47] was 3.9 µM. The TGI [47] was 19 µM, the GI50 [48] was 3.51 µM and the TGI [48] was 13.6 µM. The GI50 [49] was 4.4 µM, the TGI [49] was 19 µM and the GI50 [50] was 2.93 µM. For the same molecule, the TGI [50] was 10.6 µM, the GI50 [51] was 8.23 µM and the TGI [51] was greater than 100 µM. It also gave a GI50 [52] of 4.38 µM, a TGI [52] of 15.6 µM and a GI50 [53] of 11.9 µM. The TGI [53] was greater than 100 µM, the GI50 [54] was 1.81 µM and the TGI [54] was 4.06 µM. The GI50 [55] was 2.97 µM, the TGI [55] was 9.49 µM and the GI50 [56] was 4.43 µM. It also gave a TGI [56] of 19.6 µM, a GI50 [57] of 4.56 µM and a TGI [57] of 25.7 µM. It also gave a GI50 [58] of 1.66 µM and a TGI [58] of 3.41 µM.
